Two compounds from patent publication US20060100154A1, “Long-acting gonadotropin-releasing hormone analogs and methods of use thereof” (YEDA RESEARCH AND DEVELOPMENT CO, priority 2005, published 2006) can be followed below.

Data set [1] has as its target T1, rat pituitary GnRH receptors (Rattus norvegicus, UniProt P30969).
T1 construct: from tissue; host or cells: rat pituitary membranes (Wistar-derived rats)
T1 sequence (P30969 1-327): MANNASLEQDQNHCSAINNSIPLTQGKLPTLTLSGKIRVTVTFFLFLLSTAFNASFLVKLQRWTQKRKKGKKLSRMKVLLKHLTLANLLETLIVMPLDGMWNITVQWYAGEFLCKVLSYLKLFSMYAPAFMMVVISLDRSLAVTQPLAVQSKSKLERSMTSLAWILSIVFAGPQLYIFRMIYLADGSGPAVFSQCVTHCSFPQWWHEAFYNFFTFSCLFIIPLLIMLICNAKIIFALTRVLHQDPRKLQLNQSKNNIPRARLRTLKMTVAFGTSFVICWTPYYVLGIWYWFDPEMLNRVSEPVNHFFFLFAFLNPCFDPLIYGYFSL
Nature of the data set: Displacement binding assay with 125I[D-Lys6]GnRH on rat pituitary membranes. Particulars: vs [D-Lys6]GnRH. How it is done: Specific binding was calculated by subtracting the non-specific binding from the maximal binding, determined in the absence of any competing peptide. Results are the mean of two experiments carried out in triplicates. SEM values are omitted for clarity (FIG. 3).

Data set [2] deals with primary cultures of rat pituitary cells. Nature of the data set: LH releasing potency in primary rat pituitary cell cultures. It counts as cell-based. Particulars: 4 h, 37° C.; compared to [D-Lys6]GnRH; FIG. 4. How it is done: The media were then collected and LH concentration were analyzed by double-antibody radioimmunoassay (RIA)^32 using kits kindly supplied by the National Institute of Arthritis, Metabolism and Digestive Diseases (NIMDD). Results (FIG. 4) are expressed in terms of LH-RP-3 rat reference preparation, and are the mean±SEM of LH concentration of two experiments (4 wells/experimental group, each). The basal release after 4 h was 9.41±2 ng/mL.

Data set [3] can be described thus: Relative hydrophobicity by elution from RP-18 HPLC column. The class given is physicochemical. Particulars: percent of buffer B in which the analog was eluted from RP-18 column. From the text:
All chemicals and reagents were of analytical grade. Rink amide resin, 9-fluorenylmethoxycarbonyl (Fmoc) protected amino acid derivatives, and all the reagents for solid-phase peptide synthesis were purchased from Novabiochem (Läufelfingen, Switzerland). Side-chain protecting groups employed for peptide synthesis were as follows: Arg, 2,2,4,6,7-pentamethyldihydrobenzofuran-5-sulfonyl (Pbf); His, trityl (Trt); D-Lys, 4-methyltrityl (Mtt) or tert-butyloxycarbonyl (Boc); Trp, tert-butyloxycarbonyl (Boc); Ser and Tyr, tert-butyl (tBu). Reversed phase HPLC was performed on a Spectra-Physics SP-8800 liquid chromatography system equipped with an Applied Biosystems 757 variable wavelength absorbance detector. HPLC prepacked columns were: Lichrocart, containing Lichrosorb RP-18 (250×10 mm; 7 μm, Merck, Darmstadt, Germany) for semi-preparative purification and Lichrospher 100 RP-18 (250×4 mm; 5 μm, Merck, Darmstadt, Germany) and wide pore butyl C4 (250×4.6 mm; 5 μm, J. T. Baker Inc., Phillipsburg, N.J.) for analytical purposes. HPLC purification and analysis were achieved by using a linear gradient established between 0.1% trifluoroacetic acid […] in water as buffer A and 0.1% TFA in 75% aqueous acetonitrile as buffer B. Eluent composition was 10-100% B over 40 mlin, using RP-18 column, and a gradient of 0-100% B over 40 min employing a wide pore butyl (C4) column. N-(2noro-1,4-naphtoqumonyl)-β-alanine (NQ), 1,6,8-Trihydroxy-3-carboxylic acid-anthraquinone (Emo) and 2-hydroxymethyl-anthraquinone hemiglutarate (AntrQ) were synthesized as described^14,24,27 (for chemical structure see FIG. 1).

Another data set relates to LH release. Put plainly: In vivo LH release after intraperitoneal administration. To be noted: six h after administration; 0.04 vs 0.4 nmol/rat i.p. Details: species or system rat. How it is done: The ability of [D-Lys^6(Emo)]GnRH to bind GnRH receptors and promote LH release in vitro, prompted the evaluation of its in vivo activity.
Blood samples were withdrawn by cardiac puncture under light ether anesthesia at the indicated time intervals, and serum LH levels were determined by RIA as described above (FIG. 6). Results are the mean±SEM of LH concentrations in the serum of five animals/experimental group. The LH concentration was determined using three different dilutions of each serum sample. Similar results were obtained in two other experiments.

The subject of data set [4] is αT3-1 cells. Put plainly: In vitro toxicity / phototoxicity (XTT cell survival). It counts as cell-based, mouse. How it is done: αT3-1 cells (50,000 cells/well) were plated in 96-well tissue culture plates in 0.1 mL of complete medium. After 24 h the medium was changed and cells were incubated in the same medium (without serum and phenol red) containing different concentrations of the tested compounds for 4 h at 37° C. The cells were then washed (×3) with PBS and illuminated (λmax=400 nm) in PBS. The fluence rate was 14.3 mW cm^−2 with a total fluence of 17 J cm^−2. Following illumination the media were replaced by complete medium and the plates were incubated for additional 24 h at 37° C. Cell survival was determined using the XTT (Biological Industries, Beit-Haemek, Israel) kit following the manufacture's protocol. Values are expressed as % survival.
(In general: Formazan colour is commonly taken as a measure of viable cells.)

Data set [5] has as its target T2, human serum albumin (HSA) (Homo sapiens, UniProt P02768).
T2 construct: purchased Sigma, St. Louis, Mo
Put plainly: Binding to HSA. The class given is in vitro ADME. To be noted: 37° C., 3 h; FIG. 8. How it is done: The concentration of HSA in the solution was determined using a molar extinction coefficient of 39,000 M^−1 cm^−1 at 277.5 nm^33. The unbound compound was then separated from the HSA solution by applying it on to a Centricon® concentrator column (Amicon Inc., Beverly, Mass.) with a band pass membrane of […] according to the manufacture's protocol. The HSA bound compound (˜20 μL) was then precipitated by adding it to acetonitrile (1 mL). The supernatant was kept and the precipitate was dissolved in PBS (100 μL) and re-precipitated. The combined supernatants were evaporated, the residue was dissolved in water containing 0.1% TFA (buffer A) and analyzed by HPLC to determine the amount of the tested compounds. Results represent the mean of two experiments (FIG. 8).

Data set [6] concerns αT3-1 cells. Nature of the data set: DNA fragmentation assay. To be noted: 10 μM, FIG. 10. It counts as cell-based, mouse. How it is done: FIG. 10. DNA cleavage in cells treated with [D-Lys^6(Emo)]GnRH and emodic acid. αT3-1 cells were incubated; in darkness with 10 μM of the tested compounds, washed and illuminated. After 24 h of incubation DNA was isolated and analyzed by gel electrophoresis. Lanes 1, 3 and 5 represent DNA of cells treated with 1% DMSO in PBS, emodic acid or [D-Lys^6(Emo)]GnRH, respectively, followed by illumination. Lane 2, 4 and 6 represent cells treated with 1% DMSO in PBS, emodic acid, or [D-Lys^6(Emo)]GnRH, respectively, in darkness.
αT3-1 cells (×10^6/dish) were incubated in phenol red and serum free complete medium (37° C., 5% CO2) with the tested compounds for 5 h in the dark. Cells were then washed with PBS (×3) and illuminated or remained in darkness as described earlier. The media were then replaced by complete medium and cells were incubated for additional 24 h. DNA was then isolated, using Wizard® genomic DNA purification kit (Promega, Madison, Wis.) following the company's protocol and analyzed by gel electrophoresis (0.4% cross linked agarose, ethidium bromide staining).

Data set [7] has as its system testes and prostate glands. Put plainly: Long-term treatment of male rats: weight of testes and prostate glands. It counts as in vivo. To be noted: 0.1 nmol/rat daily for 7 days vs parent peptide 1 nmol/rat; FIG. 7. How it is done: Control rats were injected daily with 0.5 mL of PBS. Rats were sacrificed 24 h after the last injection, and the testes and prostate glands were immediately dissected and weighed (FIG. 7). Results are the meant±SEM of the weight of the organs (six animals/experimental group).

Data set [8] deals with primary cultures of rat pituitary cells. Put plainly: Effect of GnRH antagonist on LH secretion stimulated by [D-Lys6(Emo)]GnRH. It counts as cell-based. To be noted: [D-Lys6(Emo)]GnRH 20 pM, antagonist 100 nM, 4 h; FIG. 5. How it is done: To determine the effect of a GnRH antagonist ([D-pyr^1, D-Phe^2, D-Trp^3,6]GnRH) on the induction of LH secretion from primary cultures of rat pituitary cells stimulated by [D-Lys^6(Emo)]GnRH, cells were incubated for 4 h at 37° C. with [D-Lys^6(Emo)]GnRH (20 pM) in the absence or presence of the GnRH antagonist (100 nM). The media were collected and LH concentration was determined by RIA (FIG. 5). Results are the mean±SEM of LH concentrations obtained from two experiments (4 wells/experimental group, each).

Square brackets hold non-standard residues; d marks the D form. d(pGlu) = O=C1CC[C@H](C(=O)O)N1

T2 sequence (P02768 25-609): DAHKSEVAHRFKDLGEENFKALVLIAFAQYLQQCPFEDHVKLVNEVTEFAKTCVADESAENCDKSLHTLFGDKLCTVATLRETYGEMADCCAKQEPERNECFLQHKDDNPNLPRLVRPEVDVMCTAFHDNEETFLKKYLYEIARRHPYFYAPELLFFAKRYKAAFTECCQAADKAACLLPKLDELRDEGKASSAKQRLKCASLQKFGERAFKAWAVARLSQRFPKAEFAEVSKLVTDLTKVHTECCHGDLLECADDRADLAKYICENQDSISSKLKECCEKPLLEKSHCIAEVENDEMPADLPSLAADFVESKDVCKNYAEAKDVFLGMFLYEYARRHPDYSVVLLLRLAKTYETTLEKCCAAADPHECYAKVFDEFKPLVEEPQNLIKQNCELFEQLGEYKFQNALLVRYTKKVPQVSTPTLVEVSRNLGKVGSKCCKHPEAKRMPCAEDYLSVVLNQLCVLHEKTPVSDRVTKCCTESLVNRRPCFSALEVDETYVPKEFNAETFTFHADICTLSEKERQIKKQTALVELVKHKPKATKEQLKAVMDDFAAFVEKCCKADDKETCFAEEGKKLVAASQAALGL

Take `CC(C)C[C@H](NC(=O)[C@@H](CCCCNC(=O)c1cc(O)c2c(c1)C(=O)c1cc(O)cc(O)c1C2=O)NC(=O)[C@H](Cc1ccc(O)cc1)NC(=O)[C@H](CO)NC(=O)[C@H](Cc1c[nH]c2ccccc12)NC(=O)[C@H](Cc1c[nH]cn1)NC(=O)[C@@H]1CCC(=O)N1)C(=O)N[C@@H](CCCNC(=N)N)C(=O)N1CCC[C@H]1C(=O)NCC(N)=O` [[D-Lys^6(Emo)]GnRH, [D-Lys^6(1,3,8-trihydroxy-6-carboxy-anthraquinone)]GnRH]: the “reduction of affinity to GnRH receptors compared to the parent peptide” value in data set [1] is recorded as “about 3 fold”. Further, the “LH releasing activity in vitro” value in data set [2] was “highest bioactivity”. For the same compound, the “Hydrophobicity (% B)” value in data set [3] was determined as 66 % B. For the same compound, the “LH levels relative to group treated with [D-Lys6]GnRH” value with LH release is reported as “about 6 folds”. In addition, in the data set on αT3-1 cells [4] (10 μM, illuminated, FIG. 9), the “phototoxicity to αT3-1 cells” value is listed as “did not exhibit any toxicity”. In addition, in the data set with αT3-1 cells [4] (incubated in the dark), the “toxicity to αT3-1 cells in the dark” value is reported as “did not show any toxicity”. Further, the “binding to HSA” value in [5] was “binds significantly to HSA”. In addition, in the data set on αT3-1 cells [6] (darkness), the “DNA fragmentation in the dark” value is “did not cause any DNA fragmentation”. For the same compound, the “DNA fragmentation upon illumination” value in the data set with αT3-1 cells [6] (illuminated) is “but not [D-Lys^6(Emo)]GnRH (lane 5) induced DNA fragmentation”. Besides, the “decrease in testicular and ventral prostate gland weights” value in [7] is on record as “greater decrease”.
Regarding “[D-pGlu^1, D-Phe^2, D-Trp^3,6]GnRH ([d(pGlu)][dF][dW]SY[dW]LRPG-NH2; SMILES CC(C)C[C@H](NC(=O)[C@@H](Cc1c[nH]c2ccccc12)NC(=O)[C@H](Cc1ccc(O)cc1)NC(=O)[C@H](CO)NC(=O)[C@@H](Cc1c[nH]c2ccccc12)NC(=O)[C@@H](Cc1ccccc1)NC(=O)[C@H]1CCC(=O)N1)C(=O)N[C@@H](CCCNC(=N)N)C(=O)N1CCC[C@H]1C(=O)NCC(N)=O) [GnRH antagonist]”, in [8], the “inhibition of [D-Lys6(Emo)]GnRH-induced LH secretion” value was “completely inhibited”.
